Key:
Balb/c mice [1] = test: Hot-Plate Test (antinociceptive effect), sub-chronic oral administration; type: in vivo; details: po daily for 16 days, 0.1 and 5 mg/Kg, hot plate on days 1, 8 and 15
From the text: The objective of the study was to assess antinociceptive activity of tested items in the hot plate tests in mice, when administered sub-chronically. Measuring paw licking or jumping response time elapses following placement on heated surface (hot plate) was used to determine potential antinociceptive effect in mice.
A total of 42 Balb/c mice (12 weeks old) were utilized. The mice were approximately 25 g males at study initiation. The minimum and maximum weights of the group were within a range of ±10% of group mean weight.
Compounds 2 and 3 were tested and compared with Diclofenac® (Perigo). DMSO solutions were used. Six groups of mice (each having n=7 or n=8 mice) were tested, the last group receiving Diclofenac®.
All groups received the drugs daily po for 16 days. Hot plate experiments were performed on days; 1, 8 and 15.
The hot plate is maintained thermostatically at a temperature of 52° C. One hour before the administration of the drugs, mice are tested in the hot plate. At time 0 the mice are administered with the test compound and the response to the hot plate is measured again at different times: 60, 120, 180, 240, 300 and 360 min.
Results are expressed as: Delta from maximum response [baseline vs. maximum response]; Absolute measures over time; and Accumulated time.

Balb/c mice [2] = test: Formalin test; type: in vivo; details: i.p. 0.2, 1, 2.5 mg/kg, formalin 1% intraplantar 3 h or 4 h after the treatment, FIGS. 12a-12e
Procedure: Formalin test. The method used was similar to that described by Hunscaar and Hole (1987) “The formalin test in mice: dissociation between inflammatory and non-inflammatory pain,” Pain 30, pp. 103-104.
Five animals are used in each group and two to three hours after oral administration of the conjugates, 40 μl or 20 μl (rats or mice, respectively) of a 1% formalin (in 0.9% saline) solution is injected subcutaneously into the dorsal surface hind paw. The formalin induced typical flinching behaviour of the injected paw which was counted. The animals were returned to a glass chamber and the total time spent by the animal licking or biting the injected paw was measured. Formalin induced pain behaviour is biphasic. The duration of paw licking was determined during the following two time periods: 0-5 min (first-neurogenic phase) and 20-30 min (second-inflammatory phase) after formalin injection.
Part a. Male mice (Balb/c mice, 27 weeks old, not naïve), were divided in 4 groups (5 mice per group) and treated (0 min, i.p.) with the following formulations, respectively: […]
Part b. Male mice (Balb/c mice, 27 weeks old, not naïve), were divided in 4 groups (5 mice in groups) and treated (0 min, i.p.) with the following formulations, respectively: […]

SMILES | effectiveness as pain relievers (hot plate test) (Balb/c mice [1]) | anti-inflammatory properties (formalin test) (Balb/c mice [2])
CC(O)COCC(Cc1ccc(O)cc1)NC(=O)CCc1ccccc1 (stereo not drawn) [Compound 2] | effective as pain relievers | confirm the anti-inflammatory properties
O=C(CCc1ccccc1)NC(COCCO)Cc1ccc(O)cc1 (stereo not drawn) [Compound 3] | effective as pain relievers | 

From patent US8802734B2, “Method of treating or preventing pain” (Novaremed Limited, priority 2009, dated 2014)
